Experimental data reported in EP2058306A1, “Heteroaryl-substituted 2-pyridinyl-methylamine derivatives” (SCHWARZ PHARMA AG, priority 2007, dated 2009).
Read-outs that look alike come from different tables or passages of the source.

Legend:
dopamine D1 receptor = target: T1, dopamine D1 receptor (Sus scrofa, UniProt P50130); assay: radioligand binding assay, dopamine D1 receptor, [3H]SCH 23390; conditions: porcine striatum membranes, mean of two to five experiments in triplicate, read-out: Ki D1
T1 construct: native membrane preparations from porcine striatum; from tissue; host or cells: porcine striatum
T1 sequence (P50130 whole entry): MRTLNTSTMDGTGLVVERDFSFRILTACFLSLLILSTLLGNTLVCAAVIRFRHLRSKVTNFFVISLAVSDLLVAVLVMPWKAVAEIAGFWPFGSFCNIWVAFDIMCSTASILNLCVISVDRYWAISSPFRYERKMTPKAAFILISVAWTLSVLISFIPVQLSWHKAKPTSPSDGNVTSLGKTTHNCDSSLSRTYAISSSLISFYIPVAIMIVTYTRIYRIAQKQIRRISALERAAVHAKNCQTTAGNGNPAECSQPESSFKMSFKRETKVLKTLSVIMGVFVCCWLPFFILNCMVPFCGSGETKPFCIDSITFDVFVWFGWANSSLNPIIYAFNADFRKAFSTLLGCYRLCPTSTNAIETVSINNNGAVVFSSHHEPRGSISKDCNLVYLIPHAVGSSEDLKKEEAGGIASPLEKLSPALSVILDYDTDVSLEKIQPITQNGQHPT
Source text: (§1) Biological activity of the compounds has been determined in radioligand binding assays. These experiments have been done according to methods which are described in literature (Hübner, H. et al., J. Med. Chem. (2000), 43, 7562). For the determination of binding affinity to the receptors of the dopamine D2 family membranes were established carrying the human D2long, D2short, D3 or D4.4 receptor subtype stably expressed in Chinese hamster ovary cell lines. In principle, the binding experiments started when incubating an appropriate amount of membrane with the radioligand [^3H]spiperone and the particular test compounds used in a wide range of different concentrations from subnanomolar up to micromolar ones. In the same way, binding affinities of the test compounds to the dopamine D1 receptor were determined when using native membrane preparations from porcine striatum and the D1 selective radioligand [^3H]SCH 23390.
(§2) The results of the binding experiments are summarized in Table 1 as mean values of two to five individual experiments each done in triplicate and expressed as Ki values in nM.

5-HT2 = target: T2, 5-HT2 (Sus scrofa, UniProt P50129); assay: radioligand binding assay, serotonin 5-HT2 receptor, [3H]ketanserin; parameters: species or system porcine
T2 construct: membrane preparations from porcine cortex; from tissue; host or cells: porcine cortex
T2 sequence (P50129 whole entry): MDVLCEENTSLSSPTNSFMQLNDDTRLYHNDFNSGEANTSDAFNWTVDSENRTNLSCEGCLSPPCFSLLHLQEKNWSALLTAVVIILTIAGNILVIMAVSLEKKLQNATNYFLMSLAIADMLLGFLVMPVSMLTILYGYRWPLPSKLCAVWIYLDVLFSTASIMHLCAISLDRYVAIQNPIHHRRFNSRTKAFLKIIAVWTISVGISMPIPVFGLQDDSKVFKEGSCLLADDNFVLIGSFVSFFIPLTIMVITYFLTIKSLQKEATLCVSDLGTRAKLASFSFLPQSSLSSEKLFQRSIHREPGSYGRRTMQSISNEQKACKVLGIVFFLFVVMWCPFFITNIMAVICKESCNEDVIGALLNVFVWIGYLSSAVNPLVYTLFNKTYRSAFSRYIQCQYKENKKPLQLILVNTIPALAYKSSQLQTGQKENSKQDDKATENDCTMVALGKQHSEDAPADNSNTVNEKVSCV

human D3 = human D3 (Homo sapiens, UniProt P35462); assay: radioligand binding assay, dopamine D3 receptor, [3H]spiperone; conditions: CHO cell membranes, mean of two to five experiments in triplicate, read-out: Ki D3
Chain of human D3 (P35462 whole entry): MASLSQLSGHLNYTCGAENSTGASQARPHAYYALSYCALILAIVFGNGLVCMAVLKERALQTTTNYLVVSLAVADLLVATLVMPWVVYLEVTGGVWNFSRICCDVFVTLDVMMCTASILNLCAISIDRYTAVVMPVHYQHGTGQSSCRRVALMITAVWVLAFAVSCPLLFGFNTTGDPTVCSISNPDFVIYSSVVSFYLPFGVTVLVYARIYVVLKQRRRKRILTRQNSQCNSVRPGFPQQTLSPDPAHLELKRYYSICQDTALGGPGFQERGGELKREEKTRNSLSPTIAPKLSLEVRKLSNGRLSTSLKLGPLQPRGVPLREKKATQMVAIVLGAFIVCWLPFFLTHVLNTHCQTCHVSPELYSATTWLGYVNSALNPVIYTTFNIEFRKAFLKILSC
Protocol: as §1, with “These” for “Biological activity of the compounds has been determined in radioligand binding assays. These”, “ones.” for “ones. In the same way, binding affinities of the test compounds to the dopamine D1 receptor were determined when using native membrane preparations from porcine striatum and the D1 selective radioligand [^3H]SCH 23390.”

human D2long, D2short = human D2long, D2short (Homo sapiens, UniProt P14416); assay: biochemical; assay type: binding; conditions: CHO cell membranes, [3H]spiperone; mean of two to five experiments in triplicate; read-out: Ki D2
Chain of human D2long, D2short (P14416 whole entry): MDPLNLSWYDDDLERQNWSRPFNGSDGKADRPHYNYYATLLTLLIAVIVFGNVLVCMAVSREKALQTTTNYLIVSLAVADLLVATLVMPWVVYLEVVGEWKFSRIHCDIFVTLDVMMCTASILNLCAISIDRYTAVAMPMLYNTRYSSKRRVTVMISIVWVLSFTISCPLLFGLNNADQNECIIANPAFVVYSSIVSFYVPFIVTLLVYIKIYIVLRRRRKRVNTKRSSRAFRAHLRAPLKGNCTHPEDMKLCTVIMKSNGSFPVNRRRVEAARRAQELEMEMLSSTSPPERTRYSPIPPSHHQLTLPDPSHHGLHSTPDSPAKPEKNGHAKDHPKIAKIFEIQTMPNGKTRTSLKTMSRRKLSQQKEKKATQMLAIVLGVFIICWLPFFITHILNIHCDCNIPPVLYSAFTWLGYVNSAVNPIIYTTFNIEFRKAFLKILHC
Protocol: as §1, with “These” for “Biological activity of the compounds has been determined in radioligand binding assays. These”, “ones.” for “ones. In the same way, binding affinities of the test compounds to the dopamine D1 receptor were determined when using native membrane preparations from porcine striatum and the D1 selective radioligand [^3H]SCH 23390.”

human D4.4 = target: T3, human D4.4 (Homo sapiens, UniProt P21917); assay: radioligand binding assay, dopamine D4.4 receptor, [3H]spiperone; conditions: CHO cell membranes, mean of two to five experiments in triplicate, read-out: Ki D4.4
T3 sequence (P21917 1-419): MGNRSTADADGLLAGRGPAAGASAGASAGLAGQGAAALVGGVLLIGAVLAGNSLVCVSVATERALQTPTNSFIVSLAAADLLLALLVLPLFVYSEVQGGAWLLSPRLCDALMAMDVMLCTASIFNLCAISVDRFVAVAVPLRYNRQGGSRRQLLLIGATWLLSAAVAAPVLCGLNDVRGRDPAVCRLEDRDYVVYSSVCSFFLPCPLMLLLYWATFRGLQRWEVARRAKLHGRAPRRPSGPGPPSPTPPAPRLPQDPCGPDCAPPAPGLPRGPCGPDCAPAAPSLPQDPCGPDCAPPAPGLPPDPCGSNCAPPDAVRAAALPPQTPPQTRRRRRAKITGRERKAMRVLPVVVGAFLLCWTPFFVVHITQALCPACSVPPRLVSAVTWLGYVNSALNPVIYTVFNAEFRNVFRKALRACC
Source text: as §1, §2

alpha-1 = assay: radioligand binding assay, adrenergic alpha-1 receptor, [3H]prazosin; conditions: porcine cortical membranes, mean of two to five experiments in triplicate, read-out: Ki alpha1
Protocol: (§3) The investigation of receptor binding to the serotonin and adrenergic receptors was done according to a published procedure (Heindl, C. et al., Tetrahedron: Asymmetry (2003), 14, 3141-3152). In detail, for the determination of the binding properties to serotonin receptors membrane preparations from porcine cortex was incubated with the 5-HT1A selective radioligand [^3H]WAY 100635 or with the 5-HT2 selective compound [^3H]ketanserin. The measurement of alpha-1 and alpha-2 receptor binding was achieved when utilizing porcine cortical membranes and the selective radioligands [^3H]prazosin (for alpha-1) and [^3H]RX821002 in an assay similar to that described above.
as §2

5-HT1A = target: T4, 5-HT1A (Sus scrofa, UniProt A0A4X1UTF5); assay: radioligand binding assay, serotonin 5-HT1A receptor, [3H]WAY 100635; conditions: porcine cortex membranes, mean of two to five experiments in triplicate, read-out: Ki 5-HT1a
T4 construct: membrane preparations from porcine cortex; from tissue; host or cells: porcine cortex
T4 sequence (A0A4X1UTF5 1-422): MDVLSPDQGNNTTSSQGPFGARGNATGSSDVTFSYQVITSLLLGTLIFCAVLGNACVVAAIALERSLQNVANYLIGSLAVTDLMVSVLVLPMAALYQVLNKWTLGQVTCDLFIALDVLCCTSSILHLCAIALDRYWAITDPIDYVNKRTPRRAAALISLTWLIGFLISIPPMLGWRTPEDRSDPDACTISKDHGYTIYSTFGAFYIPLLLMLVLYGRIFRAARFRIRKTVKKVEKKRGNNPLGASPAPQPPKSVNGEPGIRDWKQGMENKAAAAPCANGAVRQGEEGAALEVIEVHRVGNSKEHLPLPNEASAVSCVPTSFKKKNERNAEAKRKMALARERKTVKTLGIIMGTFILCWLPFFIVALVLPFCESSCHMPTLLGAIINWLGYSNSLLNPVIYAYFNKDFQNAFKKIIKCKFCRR
Protocol: as §3, §2

[1] = porcine cortex membranes, [3H]ketanserin, mean of two to five experiments in triplicate, read-out: Ki 5-HT2

Molecule | Ki (dopamine D1 receptor) [µM] | Ki (5-HT2) [µM] | Ki (human D3) [µM] | Ki (human D2long, D2short) [µM] | Ki (human D4.4) [nM] | Ki (alpha-1) [µM] | Ki (5-HT1A) [nM] | Ki (5-HT2; [1]) [µM]
Cc1ccc(CNCC2(F)CCN(C(=O)c3cc4cc(Br)ccc4s3)CC2)nc1 [Example E24, 5-Bromobenzo[b]thien-2-yl-[4-fluoro-4-[[(5-methylpyridin-2-ylmothyl)amino]methyl]piporidin-1-yl]-methanone] | > 5 | > 5 | 0.501 to 5 | > 5 | 501 to 5000 | 0.05 to 0.5 | 50 to 500 | 
Cc1ccc(CNCC2(F)CCN(C(=O)c3csc4ccccc34)CC2)nc1 [Example E25, Benzo[b]thien-3-yl-[4-fluoro-4-[[(5-methylpyridin-2-ylmethyl)amino]methyl]piperidin-1-yl]-methanone] | > 5 |  | > 5 | > 5 | 50 to 500 | 0.501 to 5 | < 50 | > 5
Cc1ccc(CNCC2(F)CCN(C(=O)c3cc4sccc4s3)CC2)nc1 [Example E26, [4-Fluoro-4-[[(5-methylpyridin-2-ylmethyl)amino]methyl]piperidin-1-yl]-thieno[3,2-b]thien-2-yl-mothanone] | > 5 | > 5 | > 5 | > 5 | 501 to 5000 | 0.501 to 5 | < 50 | 
Cc1ccc(CNCC2(F)CCN(C(=O)c3cc4ccsc4s3)CC2)nc1 [Example E27, [4-Fluoro-4-[[(5-methylpyridin-2-ylmethyl)amino]methyl]piperidin-1-yl]-thieno[2,3-b]thien-2-yl-methanone] | > 5 |  | > 5 | > 5 | 50 to 500 | 0.501 to 5 | < 50 | > 5
Cc1ccc(CNCC2(F)CCN(C(=O)c3sc4sccc4c3Cl)CC2)nc1 [Example E28, 3-Chlorothieno[2,3-b]thion-2-yl-[4-fluoro-4-[[(5-methylpyridin-2-ylmothyl)amino]methyl]piperidin-1-yl]-mothanone] | > 5 | > 5 | 0.501 to 5 | 0.501 to 5 | 50 to 500 | 0.501 to 5 | < 50 | 
Cc1ccc(CNCC2(F)CCN(C(=O)c3scc4c3CCCC4)CC2)nc1 [Example E29, [4-Fluoro-4-[[(5-methylpyridin-2-ylmethyl)amino]methyl]pipendin-1-yl]-4,5,6,7-tetrahydrobenzo[c]thien-1-yl-methanone] | > 5 |  | > 5 | > 5 | 501 to 5000 | 0.501 to 5 | < 50 | > 5
Cc1ccc(CNCC2(F)CCN(C(=O)c3sc(Br)c4c3OCCO4)CC2)nc1 [Example E30, 7-Bromo-2,3-dihydrothieno[3,4-b][1,4]dioxin-5-yl-[4-fluoro-4-[[5-methylpyridin-2-ylmethyl)aminolmothyl]piperidin-1-yl]-methanone] | > 5 | > 5 | 0.501 to 5 | > 5 | 501 to 5000 | 0.501 to 5 | < 50 | 
Cc1ccc(CNCC2(F)CCN(C(=O)c3ccco3)CC2)nc1 [Example E31, [4-Fluoro-4-[[(5-methylpyridin-2-ylmethyl)amino]methyl]piperidin-1-yl]-furan-2-yl-methanone] | > 5 |  | > 5 | > 5 | > 5000 | > 5 | 50 to 500 | > 5
Cc1ccc(CNCC2(F)CCN(C(=O)c3ccoc3)CC2)nc1 [Example E33, [4-Fluoro-4-[[(5-methylpyridin-2-ylmethyl)amino]methyl]piperidin-1-yl]-furan-3-yl-methanone] | > 5 |  | > 5 | > 5 | > 5000 | > 5 | 50 to 500 | > 5
Cc1ccc(CNCC2(F)CCN(C(=O)c3coc(Br)c3)CC2)nc1 [Example E34, 5-Bromofuran-3-yl-[4.fluoro-4-[[(5-methylpyridin-2-ylmethyl)amino]methyl]piperidin-1-yl]-methanone] | > 5 | > 5 | > 5 | > 5 | 501 to 5000 | 0.501 to 5 | < 50 | 
Cc1ccc(CNCC2(F)CCN(C(=O)c3cc4ccccc4o3)CC2)nc1 [Example E35, Benzo[b]furan-2-yl-[4-fluoro-4-[[(5-methylpyridin-2-ylmothyl)amino]methyl]piperidin-1-yl]-methanone] | > 5 | > 5 | > 5 | > 5 | 501 to 5000 | 0.501 to 5 | 50 to 500 | 
Cc1ccc(CNCC2(F)CCN(C(=O)c3cc4ccccn4n3)CC2)nc1 [Example E42] | > 5 | > 5 | > 5 | > 5 | > 5000 | > 5 | 50 to 500 | 
Cc1ccc(CNCC2(F)CCN(C(=O)c3cnn4ccccc34)CC2)nc1 [Example E43, [4-Fluoro-4-[[(5-methylpyridin-2-ylmethyl)amino]methyl]piperidin-1-yl]-pyrazolo[1,5-a]pyridin-3-yl-methanone] | > 5 |  | > 5 | > 5 | > 5000 | 0.501 to 5 | 50 to 500 | > 5
[4-Fluoro-4-[[(5-methylpyridin-2-ylmethyl)amino]methyl]piperidin-1-yl]-indol-2-yl-methanone [Example E41] | > 5 |  | 0.501 to 5 | > 5 | 501 to 5000 | 0.501 to 5 | 50 to 500 | > 5
